Results: patent US9113629B2, “4-amino-6-(4-substituted-phenyl)-picolinates and 6-amino-2-(4-substituted-phenyl)-pyrimidine-4-carboxylates and their use as herbicides” (DOW AGROSCIENCES LLC, priority 2013, dated 2015)
Read-outs that look alike come from different tables or passages of the source.

Columns and labels:
[1] = tested on: Key Grass and Sedge Weeds as well as Grass Crops; test: Post-emergent Test II herbicidal activity (Table 6); format: in vivo; conditions: post-emergence, 336 h; for pest or weed control at 70 g/ha: 70 g ai/ha; for pest or weed control at 140 g/ha: 140 g ai/ha
Summary of the method: (§1)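 Plants grown in Metro-Mix 360 (pH 6.0–6.8) in a greenhouse (~15 h photoperiod, 23–29 °C day) to first or second true leaf stage, then sprayed with compound in acetone/DMSO/aqueous crop-oil-surfactant carrier at 187 L/ha by track sprayer. Injury visually scored 0–100% versus untreated plants after 14 d.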

[2] = tested on: Key Broadleaf Weed and Crop Species; test: Post-emergent Test II herbicidal activity (Table 5); format: in vivo; conditions: post-emergence, 336 h, 14 days after application; for pest or weed control at 70 g/ha: application rate 70 g ai/ha; for pest or weed control at 140 g/ha: application rate 140 g ai/ha
Summary of the method: as §1

[3] = CYPES: yellow nutsedge (Cyperus esculentus), read-out: Visual Growth Reduction (%) 14 Days After Application, CYPES
[4] = DIGSA: crabgrass (Digitaria sanguinalis), read-out: Visual Growth Reduction (%) 14 Days After Application, DIGSA
[5] = ECHCG: barnyardgrass (Echinochloa crus-galli), read-out: Visual Growth Reduction (%) 14 Days After Application, ECHCG
[6] = ORYSA: rice (Oryza sativa), crop, read-out: Visual Growth Reduction (%) 14 Days After Application, ORYSA
[7] = SETFA: giant foxtail (Setaria faberi), read-out: Visual Growth Reduction (%) 14 Days After Application, SETFA
[8] = SORVU: grain sorghum (Sorghum vulgare), read-out: Visual Growth Reduction (%) 14 Days After Application, SORVU
[9] = TRZSS (wheat, Triticum aestivum), crop, read-out: Visual Growth Reduction (%) 14 Days After Application, TRZSS
[10] = ZEAMX: maize, corn (Zea mays), crop, read-out: Visual Growth Reduction (%) 14 Days After Application, ZEAMX
[11] = ABUTH: velvetleaf (Abutilon theophrasti), read-out: Visual Growth Reduction (%) 14 Days After Application, ABUTH
[12] = AMARE: redroot pigweed (Amaranthus retroflexus), read-out: Visual Growth Reduction (%) 14 Days After Application, AMARE
[13] = BRSNN: oilseed-rape, canola (Brassica napus), read-out: Visual Growth Reduction (%) 14 Days After Application, BRSNN
[14] = CHEAL: lambsquarters (Chenopodium album), read-out: Visual Growth Reduction (%) 14 Days After Application, CHEAL
[15] = EPHHL: wild poinsettia (Euphorbia heterophylla), read-out: Visual Growth Reduction (%) 14 Days After Application, EPHHL
[16] = HELAN: sunflower (Helianthus annuus), read-out: Visual Growth Reduction (%) 14 Days After Application, HELAN
[17] = VIOTR: wild pansy (Viola tricolor), read-out: Visual Growth Reduction (%) 14 Days After Application, VIOTR

`COC(=O)c1nc(-c2ccc(C)c(F)c2F)c(F)c(N)c1Cl` [Compound 211] showed a pest or weed control at 70 g/ha [1, 3] of 45 to 59%, a pest or weed control at 140 g/ha [1, 3] of 60 to 74% and a pest or weed control at 70 g/ha [1, 4] of 0 to 29%. The pest or weed control at 140 g/ha [1, 4] was 0 to 29%, the pest or weed control at 70 g/ha [1, 5] was 45 to 59% and the pest or weed control at 140 g/ha [1, 5] was 85 to 94%. It also gave a pest or weed control at 70 g/ha [1, 6] of 0 to 29%, a pest or weed control at 140 g/ha [1, 6] of 0 to 29% and a pest or weed control at 70 g/ha [1, 7] of 45 to 59%. For the same compound, the pest or weed control at 140 g/ha [1, 7] was 60 to 74%, the pest or weed control at 70 g/ha [1, 8] was 0 to 29% and the pest or weed control at 140 g/ha [1, 8] was 30 to 44%. It also gave a pest or weed control at 70 g/ha [1, 9] of 0 to 29%, a pest or weed control at 140 g/ha [1, 9] of 0 to 29% and a pest or weed control at 70 g/ha [1, 10] of 30 to 44%. For the same compound, the pest or weed control at 140 g/ha [1, 10] was 45 to 59%, the pest or weed control at 70 g/ha [2, 11] was 95 to 100% and the pest or weed control at 140 g/ha [2, 11] was 95 to 100%. It also gave a pest or weed control at 70 g/ha [2, 12] of 95 to 100%, a pest or weed control at 140 g/ha [2, 12] of 95 to 100% and a pest or weed control at 70 g/ha [2, 13] of 60 to 74%. For the same compound, the pest or weed control at 140 g/ha [2, 13] was 85 to 94%, the pest or weed control at 70 g/ha [2, 14] was 95 to 100% and the pest or weed control at 140 g/ha [2, 14] was 95 to 100%. It also gave a pest or weed control at 70 g/ha [2, 15] of 95 to 100%, a pest or weed control at 140 g/ha [2, 15] of 95 to 100% and a pest or weed control at 70 g/ha [2, 16] of 95 to 100%. For the same compound, the pest or weed control at 140 g/ha [2, 16] was 95 to 100%, the pest or weed control at 70 g/ha [2, 17] was 0 to 29% and the pest or weed control at 140 g/ha [2, 17] was 0 to 29%. For the same compound, the melting point was 167 to 168 °C.

`Cc1ccc(-c2nc(C(=O)O)c(Cl)c(N)c2F)cc1F` [Compound 212] gave a pest or weed control at 70 g/ha [1, 3] of 0 to 29%, a pest or weed control at 140 g/ha [1, 3] of 30 to 44% and a pest or weed control at 70 g/ha [1, 4] of 0 to 29%. The pest or weed control at 140 g/ha [1, 4] was 30 to 44%, the pest or weed control at 70 g/ha [1, 5] was 75 to 84% and the pest or weed control at 140 g/ha [1, 5] was 85 to 94%. For the same compound, the pest or weed control at 70 g/ha [1, 6] was 60 to 74%, the pest or weed control at 140 g/ha [1, 6] was 60 to 74% and the pest or weed control at 70 g/ha [1, 7] was 45 to 59%. For the same compound, the pest or weed control at 140 g/ha [1, 7] was 75 to 84%, the pest or weed control at 70 g/ha [1, 8] was 60 to 74% and the pest or weed control at 140 g/ha [1, 8] was 75 to 84%. The pest or weed control at 70 g/ha [1, 9] was 60 to 74%, the pest or weed control at 140 g/ha [1, 9] was 60 to 74% and the pest or weed control at 70 g/ha [1, 10] was 75 to 84%. For the same compound, the pest or weed control at 140 g/ha [1, 10] was 85 to 94%, the pest or weed control at 70 g/ha [2, 11] was 95 to 100% and the pest or weed control at 140 g/ha [2, 11] was 95 to 100%. The pest or weed control at 70 g/ha [2, 12] was 95 to 100%, the pest or weed control at 140 g/ha [2, 12] was 95 to 100% and the pest or weed control at 70 g/ha [2, 13] was 95 to 100%. The pest or weed control at 140 g/ha [2, 13] was 95 to 100%, the pest or weed control at 70 g/ha [2, 14] was 95 to 100% and the pest or weed control at 140 g/ha [2, 14] was 95 to 100%. For the same compound, the pest or weed control at 70 g/ha [2, 15] was 95 to 100%, the pest or weed control at 140 g/ha [2, 15] was 95 to 100% and the pest or weed control at 70 g/ha [2, 16] was 95 to 100%. The pest or weed control at 140 g/ha [2, 16] was 95 to 100%, the pest or weed control at 70 g/ha [2, 17] was 0 to 29% and the pest or weed control at 140 g/ha [2, 17] was 0 to 29%. It also gave a melting point of 145 to 146 °C.
